Reference: ChEMBL document CHEMBL5113461, “Improving the solubility and antileukemia activity of Wnt/β-catenin signaling inhibitors by disrupting molecular planarity” (Bioorg Med Chem, 2022)
pIC50: −log10 of the molar value. Converted amounts (≈) assume the structure as drawn.

How the values were obtained:
[1] = Aqueous solubility of the compound in PBS buffer at pH 7.4 incubated for 6 hrs by HPLC analysis; format: physicochemical; details: pH 7.4, 6 h
K562 [2] = test: cells; details: Homo sapiens, K562, 48 h
K562 [3] = test: Upregulation of axin-1 levels in human K562 cells by Western blot analysis; format: functional, cell-based; details: dose 0.1-10 µM, DDE = dose-dependent effect
K562 [4] = test: Downregulation of beta-catenin levels in human K562 cells by Western blot analysis; format: functional, cell-based; details: dose 0.1-10 µM, DDE = dose-dependent effect

| Compound | solubility [1] | pIC50 (K562 [2]) | Activity (K562 [3]) | Activity (K562 [4]) |
| --- | --- | --- | --- | --- |
| Cc1c(C(=O)Nc2ccc3ccccc3n2)cnn1-c1ccccc1Br | 0.05 µg/mL (≈ 0.123 µM) | – | – | – |
| Cc1nn(-c2ccccc2Br)c(C)c1C(=O)Nc1ccc2ccccc2n1 | 5.9 µg/mL (≈ 14 µM) | – | – | – |
| Cc1ccccc1-n1nnc(C(=O)Nc2ccc3ccccc3n2)c1C | 0.11 µg/mL (≈ 0.32 µM) | < 4.30 | – | – |

Second part, led by results:

| solubility [1] | pIC50 (K562 [2]) | Compound | Activity (K562 [3]) | Activity (K562 [4]) |
| --- | --- | --- | --- | --- |
| 6.7 µg/mL (≈ 18.8 µM) | – | Cc1ccccc1-n1nc(C)c(C(=O)Nc2ccc3ccccc3n2)c1C | – | – |
| 5.2 µg/mL (≈ 14 µM) | – | CCc1ccccc1-n1nc(C)c(C(=O)Nc2ccc3ccccc3n2)c1C | Dde | Dde |
